Experimental data taken from PMC4945070 (PLoS Neglected Tropical Diseases, 2016).
“And” between values parts separate entries of the source, which are not always exact repeats. Identical values can stand only once. “Also recorded” adds a separate entry of the source. Counter-ions that a name gives are not always drawn. Like-named read-outs stand apart in the source and are kept apart here.

Columns and labels:
[1] = biological target: H. contortus L-AChR1.1 (UNC-63, UNC-38, ACR-8, UNC-29.1) (Haemonchus contortus, UniProt A9XX24+D6MYE9+D6MYF3+D6MYF4); test: cell-based; design: Emax: dose or concentration left out as unconfirmed
Method: (§1) The H. contortus cDNAs encoding AChR subunits and ancillary proteins were available as expression clones in the pTB207 vector and C. elegans expression clones were a gift from T. Boulin.. cRNA synthesis of each construct required NheI-linearized templates and was performed with the mMessage mMachine T7 Kit (Ambion) according to the manufacturer’s instructions. cRNAs were precipitated with lithium chloride and redissolved in RNAse-free water and stored at -80°C. cRNA concentration was determined using a Nanodrop spectrophotometer (Thermo Scientific) and cRNA purity and integrity was assessed by electrophoresis through a 1% gel stained with GreenGlo nucleic acid dye (Denville Scientific Inc.).
(§2) Oocytes were collected from mature Xenopus females according to standard procedures and incubated at 19°C in a ND96 solution (NaCl 96 mM, KCl 2 mM, CaCl2 1.8 mM, MgCl2 1 mM, and HEPES 5 mM, pH 7.3 supplemented with sodium pyruvate 2.5 mM). Defolliculated oocytes were injected into the animal pole with approximately 36 nL of a cRNA mix containing 50 ng/μL of each cRNA in RNAse-free water using the Nanoject system (Drummond Scientific, Broomall, PA). Negative controls consisted of oocytes injected with RNAse-free water. Oocytes were then stored at 19°C in ND96 for 5 days to allow receptor expression. In order to prevent activation of endogenous calcium-activated chloride channels, the oocytes were incubated in ND96 supplemented with 100 μM of the calcium chelator BAPTA-AM, 4h prior to recording.
(§3) Two-electrode voltage-clamp experiments were carried out using a perfusion system connected to a flat RC-1Z chamber (Harvard Apparatus). Glass electrodes were filled with 3M KCl and checked for resistance between 1 and 3 MΩ. The oocyte bath was connected to the ground through a 3 M KCl agar bridge. Agonist and antagonists were dissolved or diluted in recording solution (100 mM NaCl, 2.5 mM KCl, 1 mM CaCl2, 5 mM HEPES, pH 7.3). All measurements were performed using a Geneclamp 500B amplifier and Digidata 1322M (Axon Instruments), oocytes were voltage-clamped at -60 mV. Drug solutions were applied to oocytes by gravity flow using perfusion syringes directly connected to the chamber. Data were collected and analyzed using Clampex 9.2 and Clampfit 9.2 (Axon Instruments, Sunnyvale, CA, USA). Traces were filtered at 30 Hz and analyzed using GraphPad Prism 5.0 software (GraphPad Software, San Diego, CA, USA). Final results are presented as means ± SE.

[2] = biological target: H. contortus L-AChR1.3 (UNC-63, UNC-38, ACR-8, UNC-29.3) (Haemonchus contortus, UniProt A9XX24+D6MYF1+D6MYF3+D6MYF4); test: cell-based; design: Emax: dose or concentration left out as unconfirmed
Method: as §1, §2, §3

[3] = biological target: H. contortus L-AChR1.4 (UNC-63, UNC-38, ACR-8, UNC-29.4) (Haemonchus contortus, UniProt A9XX24+D6MYF2+D6MYF3+D6MYF4); test: cell-based; assay type: cell-based; design: Emax: dose or concentration left out as unconfirmed
Method: as §1, §2, §3

[4] = test system: C. elegans; conditions: 200 μM LEV
Method: The Cel-unc-29, unc-29.1, unc-29.2, unc-29.3, unc-29.4 cDNA sequences were amplified by PCR using primers containing restriction site inserted with restriction enzymes in the plasmid backbone (Addgene L2534) containing the myo-3 promoter. Strains used in these study were the wild-type Bristol isolate N2 and the LEV resistant isolate CB1072: unc-29 (e1072). Worms were grown on Escherichia coli OP50 seeded NGM (Nematode Growth Medium) plates at 20°C and maintained using standard culture methods. Hermaphrodite young adult C. elegans were transformed by microinjection of plasmids into the gonads. […] Successful transformation was determined by the observation of fluorescence of the selection marker in the two targeted neurones of the head region. Only worms carrying the selection marker were used for the behavioural and pharmacological analysis.
Three day old adult fluorescent worms were transferred onto unseeded NGM plates, equilibrated at 20°C, containing 200 μM LEV. Drug induced paralysis was determined by visual inspection every 15 min. Worms were defined as paralyzed if no movement was observed within five seconds after prodding the tail with a hair tip. Statistics. Experimental data are shown as mean ± S.D. Statistical comparisons between the unc-29 (e1072) mutant strain and the transformed lines were done using two-way ANOVA with Bonferroni’s multiple comparison post test. A level of p < 0.05 was considered significant.

[5] = biological target: H. contortus L-AChR1.1 with added UNC-29.2 (Haemonchus contortus, UniProt A9XX24+D6MYE9+D6MYF3+D6MYF4); test: Two-electrode voltage clamp of L-AChR1.1 supplemented with unc-29.2 cRNA in Xenopus oocytes; assay type: cell-based
From the text: Typically, such a situation can be identified by a change in the pharmacological properties of a receptor with addition of the second subunit. To address this, we examined the possibility that UNC-29.2 may interfere with or modify the properties of the reconstituted L-AChR1.1. We prepared oocytes injected with cRNAs to express the H. contortus L-AChR1.1 and supplemented this with an increasing (0.2, 1, 5 times) concentration of cRNA for UNC-29.2 relative to UNC-29.1.
as §1, §2, §3

[6] = test system: C. elegans L-AChR subunits (Cel-unc-63, Cel-unc-38, Cel-lev-8, Cel-lev-1) with Hco-unc-29 paralog; test: Two-electrode voltage clamp of C. elegans / H. contortus AChR subunit admixtures in Xenopus oocytes; assay type: cell-based; conditions: each Hco-unc-29 paralog
From the text: To confirm that the LEV sensitivity rescue could be due to the functional incorporation of parasite protein into the C. elegans L-AChR, we injected into Xenopus oocytes, cRNA admixtures of the four essential C. elegans L-AChR subunits: Cel-unc-63, Cel-unc-38, Cel-lev-8 and Cel-lev-1, the three H. contortus accessory proteins: ric-3, unc-50 and unc-74, and the Cel-unc-29 or each Hco-unc-29 paralog in turn. Reconstitution of the C. elegans L-AChR with Cel-unc-29 produced functional channels as previously described, confirming that the H. contortus accessory proteins are functional between species. Omitting unc-29 produced no response, so any current produced using parasite genes must involve their incorporation into a functional L-AChR. […] UNC-29.1 produced an average of 500 μA currents, while the other three produced reproducible currents below 200 nA with UNC-29.2 producing the smallest response on average (S1 Fig).
as §1, with “Inc.). […]” for “Inc.).”
(§4) Two-electrode voltage-clamp experiments were carried out using a perfusion system connected to a flat RC-1Z chamber (Harvard Apparatus). […] Data were collected and analyzed using Clampex 9.2 and Clampfit 9.2 (Axon Instruments, Sunnyvale, CA, USA). Traces were filtered at 30 Hz and analyzed using GraphPad Prism 5.0 software (GraphPad Software, San Diego, CA, USA). […]

[7] = test system: H. contortus L-AChR1.2 (UNC-63, UNC-38, ACR-8, UNC-29.2); assay type: cell-based, Haemonchus contortus; conditions: UNC-29.1 replaced by UNC-29.2; n = 18
Method: as §1, §2
as §4, with “Apparatus). Glass electrodes were filled with 3M KCl and checked for resistance between 1 and 3 MΩ. The oocyte bath was connected to the ground through a 3 M KCl agar bridge.” for “Apparatus).”

[8] = read-out: blocking of ACh elicited currents

## C[N+]1(C)CCN(c2ccccc2)CC1 [DMPP, 1,1-dimethyl-4-phenylpiperazinium iodide]
[1]; L-AChR1.1, agonists at 100 μM, normalized to 100 μM acetylcholine, read-out: Max. Current ± S.E.
  Emax at 100 µM: 42 ± 1.41%
[2]; L-AChR1.3, agonists at 100 μM, normalized to 100 μM acetylcholine, read-out: Max. Current ± S.E.
  Emax at 100 µM: 36.9 ± 3.93%
[3]; L-AChR1.4, agonists at 100 μM, normalized to 100 μM acetylcholine, read-out: Max. Current ± S.E.
  Emax at 100 µM: 31.6 ± 1%

## c1ccc([C@H]2CN3CCSC3=N2)cc1 [LEV, (-)-tetramisole hydrochloride]
[1]
  Hill: 0.84 ± 0.05
  Relative response (LEV versus ACh): superagonist; also recorded: LEV > ACh
[1]; EC50
  EC50: 4.9 µM and 4.91 µM
[1]; read-out: LEV current, % of ACh response
  Emax at 100 µM: 125%
[1]; read-out: Max. Current ± S.E.
  Emax: 125 ± 3.76%
[2]
  EC50: 1.15 ± 0.08 µM
  Hill: 1.13 ± 0.09
  Relative response (LEV versus ACh): partial agonist; also recorded: LEV < ACh
[2]; read-out: LEV current, % of the ACh current
  Emax at 100 µM: 65.2 ± 9.9%
[2]; read-out: Max. Current ± S.E.
  Emax: 65.2 ± 3.5%
[4]; mutant unc-29(e1072) (CB1072), two hours
  paralysis on exposure to LEV: barely affected
[4]; unc-29(e1072) transfected with Cel-unc-29
  paralysis on exposure to LEV: complete rescue of LEV sensitivity
[4]; unc-29(e1072) transfected with each of the four H. contortus unc-29 copies
  paralysis on exposure to LEV: paralyzed after two hours
[4]; wild-type N2 worms
  paralysis on exposure to LEV: rapid paralysis that was complete after an hour
[5]; 0.2, 1, 5 times unc-29.2 cRNA relative to UNC-29.1
  effect of unc-29.2 cRNA on the pharmacological response: no effect
[5]; 29.1 : 29.2 cRNA 1 : 0.2
  EC50: 3.05 ± 0.44 µM
  Hill: 0.69 ± 0.09
[5]; 29.1 : 29.2 cRNA 1 : 1
  EC50: 2.41 ± 0.08 µM
  Hill: 0.71 ± 0.13
[5]; 29.1 : 29.2 cRNA 1 : 5
  EC50: 3.7 ± 0.35 µM
  Hill: 0.77 ± 0.13
[6]
  current on perfusion of 100 μM LEV relative to the ACh response: comparable between subunit copies
[7]
  current in response to 100 μM perfusion: failed to produce any detectable current
[3]
  EC50: 2.48 ± 0.35 µM
  Hill: 0.90 ± 0.12
  Relative response (LEV versus ACh): LEV = ACh
[3]; read-out: Max. Current ± S.E.
  Emax: 94.7 ± 2.93%

## CNC1(C)C2CCC(C2)C1(C)C (centres unmarked) [Mecamylamine, mecamylamine hydrochloride]
[1]; L-AChR1.1
  MECA inhibition (summary): Full Inhibition
[1]; L-AChR1.1, inhibition of 100 μM ACh current, dTC 100 μM, DHβE 10 μM, MECA 30 μM
  Max. Inhibition ± S.E.: 99.91 ± 0.09
[1]; [8]
  inhibition at 30 µM: 99.9 ± 0.1%
[2]; L-AChR1.3
  MECA inhibition (summary): Partial Inhibition
[2]; L-AChR1.3, inhibition of 100 μM ACh current, dTC 100 μM, DHβE 10 μM, MECA 30 μM
  Max Inhibition ± S.E.: 56.87 ± 3.18
[2]; [8]
  inhibition at 30 µM: 56.9 ± 3.2%
[3]; L-AChR1.4
  MECA inhibition (summary): Full Inhibition
[3]; [8]
  inhibition at 30 µM: 96.4 ± 1.9%

## CN1CCC[C@H]1c1cccnc1 [Nicotine, (-)-nicotine hydrogen tartrate]
[1]; read-out: Max. Current ± S.E.
  Emax: 4.7 ± 1.05%
[2]; read-out: Max. Current ± S.E.
  Emax: 6.79 ± 1.46%
[3]; read-out: Max. Current ± S.E.
  Emax: 1.52 ± 0.47%

## CN1CCCN=C1/C=C/c1cccs1 [Pyrantel, pyrantel citrate]
[1]; read-out: Max. Current ± S.E.
  Emax: 11.8 ± 0.99%
[2]; read-out: Max. Current ± S.E.
  Emax: 13.8 ± 1.26%
[3]; read-out: Max. Current ± S.E.
  Emax: 7.32 ± 0.98%
